Measurements reported in patent US20250339569A1, “CARBONIC ANHYDRASE IX LIGANDS” (priority 2021, published 2025).
Starred links: 1 amine or outer side, 2 acyl side, 3 side chain; linkers in the order of their positions; H or OH if unused. Positions of bridges follow the written chain, without caps; N, C: chain ends. Non-standard residues stand in square brackets, D forms with d. Residues, ends and D or L forms follow the SMILES beside them. *: point of attachment. NH(CH2)3NH(O2Oc(DOTA)) = O=C(O)CN1CCN(CC(=O)O)CCN(CC(=O)NCCOCCOCC(=O)NCCCN*)CCN(CC(=O)O)CC1; NH(CH2)3NHDOTA = O=C(O)CN1CCN(CC(=O)O)CCN(CC(=O)NCCCN*)CCN(CC(=O)O)CC1; X3 = O=C(O)CN1CCN(CC(=O)O)CCN(CC(=O)NCCCOCCOCCOCCCN*)CCN(CC(=O)O)CC1; DOTA = O=C(O)CN1CCN(CC(=O)O)CCN(CC(=O)*)CCN(CC(=O)O)CC1; mXylylene = c1cc(C[*:1])cc(C[*:2])c1; X2 = O=C(CN1CCC(N[*:1])CC1)[*:2]; Suc = O=C(CCC(=O)[*:2])[*:1]; Propanoyl(3-OH) = O=C(CCO)*; Isovaleryl = CC(C)CC(=O)*; Ac6c = NC1(C(=O)O)CCCCC1; Nle = CCCC[C@H](N)C(=O)O

Key:
[1] = Plasma stability assay, mouse plasma; conditions: mouse plasma, 37°C
[2] = molecular target: T1, CAIX-expressing human HT-29 colorectal cancer cells (Homo sapiens, UniProt Q16790); assay: FACS binding assay (IC50 determination, competition with tracer 3BP-2776 or 3BP-4149); conditions: FACS competition on HT-29 cells, Tracer ID 3BP-2776 (10 nM, biotin-labeled), 4° C., 1 hour; read-out: pIC50 category (activity) (converted)
T1 construct: CAIX-expressing human HT-29 colorectal cancer cells; host or cells: HT-29 human colorectal cancer cells
Method in brief: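 HT-29 cells in FACS buffer (PBS, 1% FCS) at 500.000 cells/ml were exposed to compounds competing with a labelled tracer, with biotinylated compounds detected by 1 μg/mL APC-streptavidin for 30 min on ice. APC/Cy5 median fluorescence was read by flow cytometry and IC50 derived by 4PL fit.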

[3] = molecular target: T2, human carbonic anhydrase IX (hCAIX-Fc) (Homo sapiens, UniProt Q16790); assay: Surface plasmon resonance assay with hCAIX-Fc; format: binding; conditions: 25° C.; for t1/2 category (activity): SPR dissociation half-life, hCAIX-Fc; for Kd: SPR, hCAIX-Fc captured, read-out: pKD category (activity) (converted)
T2 construct: purchased SinoBliological (Sino Biological) 10107-H02H

Compound	% intact compound remaining (incubation time) ([1]; 24 h)	IC50 [2]	t1/2 category (activity) [3]	Kd [3]	% intact compound remaining (incubation time) ([1]; 6 h)
CC(C)[C@H](NC(=O)CN1CCC(NC(=O)CN2CCN(CC(=O)O)CCN(CC(=O)O)CCN(CC(=O)O)CC2)CC1)C(=O)N[C@@H](Cc1ccc(O)cc1)C(=O)N[C@H]1CSCc2cccc(c2)CSC[C@@H](C(N)=O)NC(=O)[C@H](CO)NC(=O)[C@H](Cc2c[nH]c3ccccc23)NC(=O)[C@H]([C@@H](C)O)NC(=O)C2(CCCCC2)NC(=O)[C@H](Cc2c[nH]c3ccccc23)NC(=O)[C@H](CC(=O)O)NC(=O)[C@H]2CCCN2C(=O)[C@H](CCC(=O)O)NC1=O [3BP-3584] ({DOTA}-[X2]VYCE[dP]DW[Ac6c]TWSC-NH2; linker 4-13 via mXylylene)	>95%	< 10 nM	B (t1/2 between 5.1 and 15.0 minutes)	< 10 nM	
CC(C)C[C@@H]1NC(=O)[C@H](Cc2c[nH]c3ccccc23)NC(=O)[C@H](CC(=O)O)NC(=O)[C@H]2CCCN2C(=O)[C@H](CCC(=O)O)NC(=O)[C@@H](NC(=O)[C@H](Cc2ccc(O)cc2)NC(=O)[C@@H](NC(=O)CN2CCC(NC(=O)CN3CCN(CC(=O)O)CCN(CC(=O)O)CCN(CC(=O)O)CC3)CC2)C(C)C)CSCc2cccc(c2)CSC[C@@H](C(N)=O)NC(=O)[C@H](CCCNC(=N)N)NC(=O)[C@H](Cc2c[nH]c3ccccc23)NC(=O)[C@H]([C@@H](C)O)NC1=O [3BP-3599] ({DOTA}-[X2]VYCE[dP]DWLTWRC-NH2; linker 4-13 via mXylylene)		< 10 nM	B (t1/2 between 5.1 and 15.0 minutes)	< 10 nM	52%
CC(=O)N[C@@H](CO)C(=O)N[C@@H](Cc1ccc(O)cc1)C(=O)N[C@H]1CSCc2cccc(c2)CSC[C@@H](C(N)=O)NC(=O)[C@H](CCC(=O)NCCCNC(=O)COCCOCCNC(=O)CN2CCN(CC(=O)O)CCN(CC(=O)O)CCN(CC(=O)O)CC2)NC(=O)[C@H](Cc2c[nH]c3ccccc23)NC(=O)[C@H]([C@@H](C)O)NC(=O)[C@H](CC(C)C)NC(=O)[C@H](Cc2c[nH]c3ccccc23)NC(=O)[C@H](CC(=O)O)NC(=O)[C@H]2CCCN2C(=O)[C@H](CCC(=O)O)NC1=O [3BP-3732] (Ac-SYCE[dP]DWLTWE(NH(CH2)3NH(O2Oc(DOTA)))C-NH2; linker 3-12 via mXylylene)	>95%	< 10 nM	B (t1/2 between 5.1 and 15.0 minutes)	< 10 nM	
CC(=O)N[C@H](C(=O)N[C@@H](CCCNC(=N)N)C(=O)N[C@H]1CSCc2cccc(c2)CSC[C@@H](C(N)=O)NC(=O)[C@H](CCC(=O)NCCCNC(=O)COCCOCCNC(=O)CN2CCN(CC(=O)O)CCN(CC(=O)O)CCN(CC(=O)O)CC2)NC(=O)[C@H](Cc2c[nH]c3ccccc23)NC(=O)[C@H]([C@@H](C)O)NC(=O)[C@H](CC(C)C)NC(=O)[C@H](Cc2c[nH]c3ccccc23)NC(=O)[C@H](CC(=O)O)NC(=O)[C@H]2CCCN2C(=O)[C@H](CCC(=O)O)NC1=O)C(C)C [3BP-3734] (Ac-VRCE[dP]DWLTWE(NH(CH2)3NH(O2Oc(DOTA)))C-NH2; linker 3-12 via mXylylene)	79%	< 10 nM	B (t1/2 between 5.1 and 15.0 minutes)	< 10 nM	
CC(C)CC(=O)N[C@@H](Cc1ccc(O)cc1)C(=O)N[C@H]1CSCc2cccc(c2)CSC[C@@H](C(N)=O)NC(=O)[C@H](CCC(=O)NCCCNC(=O)COCCOCCNC(=O)CN2CCN(CC(=O)O)CCN(CC(=O)O)CCN(CC(=O)O)CC2)NC(=O)[C@H](Cc2c[nH]c3ccccc23)NC(=O)[C@H]([C@@H](C)O)NC(=O)[C@H](CC(C)C)NC(=O)[C@H](Cc2c[nH]c3ccccc23)NC(=O)[C@H](CC(=O)O)NC(=O)[C@H]2CCCN2C(=O)[C@H](CCC(=O)O)NC1=O [3BP-3740] (Isovaleryl-YCE[dP]DWLTWE(NH(CH2)3NH(O2Oc(DOTA)))C-NH2; linker 2-11 via mXylylene)	>95%	< 10 nM	B (t1/2 between 5.1 and 15.0 minutes)	< 10 nM	
CC(=O)N[C@@H](CCCCNC(=O)CN1CCN(CC(=O)O)CCN(CC(=O)O)CCN(CC(=O)O)CC1)C(=O)N[C@H](C(=O)N[C@@H](Cc1ccc(O)cc1)C(=O)N[C@H]1CSCc2cccc(c2)CSC[C@@H](C(N)=O)NC(=O)[C@H](CO)NC(=O)[C@H](Cc2c[nH]c3ccccc23)NC(=O)[C@H]([C@@H](C)O)NC(=O)[C@H](CC(C)C)NC(=O)[C@H](Cc2c[nH]c3ccccc23)NC(=O)[C@H](CC(=O)O)NC(=O)[C@H]2CCCN2C(=O)[C@H](CCC(=O)O)NC1=O)C(C)C [3BP-3840] (Ac-K(DOTA)VYCE[dP]DWLTWSC-NH2; linker 4-13 via mXylylene)	>95%	< 10 nM	B (t1/2 between 5.1 and 15.0 minutes)	< 10 nM	
CC(C)C[C@@H]1NC(=O)[C@H](Cc2c[nH]c3ccccc23)NC(=O)[C@H](CC(=O)O)NC(=O)[C@H]2CCCN2C(=O)[C@H](CCC(=O)O)NC(=O)[C@@H](NC(=O)[C@H](Cc2ccc(O)cc2)NC(=O)CCO)CSCc2cccc(c2)CSC[C@@H](C(N)=O)NC(=O)[C@H](CCC(=O)NCCCNC(=O)CN2CCN(CC(=O)O)CCN(CC(=O)O)CCN(CC(=O)O)CC2)NC(=O)[C@H](Cc2c[nH]c3ccccc23)NC(=O)[C@H]([C@@H](C)O)NC1=O [3BP-3842] ({Propanoyl(3-OH)}-YCE[dP]DWLTWE(NH(CH2)3NHDOTA)C-NH2; linker 2-11 via mXylylene)	>95%	< 10 nM	C (t1/2 between 2.1 and 5.0 minutes)	< 10 nM	
CC(C)C[C@@H]1NC(=O)[C@H](Cc2c[nH]c3ccccc23)NC(=O)[C@H](CC(=O)O)NC(=O)[C@H]2CCCN2C(=O)[C@H](CCC(=O)O)NC(=O)[C@@H](NC(=O)[C@H](Cc2ccc(O)cc2)NC(=O)CN2CCN(CC(=O)O)CCN(CC(=O)O)CCN(CC(=O)O)CC2)CSCc2cccc(c2)CSC[C@@H](C(N)=O)NC(=O)[C@H](CO)NC(=O)[C@H](Cc2c[nH]c3ccccc23)NC(=O)[C@H]([C@@H](C)O)NC1=O [3BP-3859] ({DOTA}-YCE[dP]DWLTWSC-NH2; linker 2-11 via mXylylene)	>95%	< 10 nM	B (t1/2 between 5.1 and 15.0 minutes)		
CCCC[C@H](NC(=O)CCC(=O)NCCCOCCOCCOCCCNC(=O)CN1CCN(CC(=O)O)CCN(CC(=O)O)CCN(CC(=O)O)CC1)C(=O)N[C@@H](Cc1ccc(O)cc1)C(=O)N[C@H]1CSCc2cccc(c2)CSC[C@@H](C(N)=O)NC(=O)[C@H](CO)NC(=O)[C@H](Cc2c[nH]c3ccccc23)NC(=O)[C@H]([C@@H](C)O)NC(=O)[C@H](CC(C)C)NC(=O)[C@H](Cc2c[nH]c3ccccc23)NC(=O)[C@H](CC(=O)O)NC(=O)[C@H]2CCCN2C(=O)[C@H](CCC(=O)O)NC1=O [3BP-3870] ({X3-Suc}-[Nle]YCE[dP]DWLTWSC-NH2; linker 3-12 via mXylylene)	92%	< 10 nM	B (t1/2 between 5.1 and 15.0 minutes)	< 10 nM	
CC(=O)N[C@H](C(=O)N[C@@H](Cc1ccccc1)C(=O)N[C@H]1CSCc2cccc(c2)CSC[C@@H](C(N)=O)NC(=O)[C@H](CCC(=O)NCCCNC(=O)CN2CCN(CC(=O)O)CCN(CC(=O)O)CCN(CC(=O)O)CC2)NC(=O)[C@H](Cc2c[nH]c3ccccc23)NC(=O)[C@H]([C@@H](C)O)NC(=O)[C@H](CC(C)C)NC(=O)[C@H](Cc2c[nH]c3ccccc23)NC(=O)[C@H](CC(=O)O)NC(=O)[C@H]2CCCN2C(=O)[C@H](CCC(=O)O)NC1=O)C(C)C [3BP-3874] (Ac-VFCE[dP]DWLTWE(NH(CH2)3NHDOTA)C-NH2; linker 3-12 via mXylylene)	>95%	< 10 nM	B (t1/2 between 5.1 and 15.0 minutes)	< 10 nM	
CC(C)C[C@@H]1NC(=O)[C@H](Cc2c[nH]c3ccccc23)NC(=O)[C@H](CC(=O)O)NC(=O)[C@H]2CCCN2C(=O)[C@H](CCC(=O)O)NC(=O)[C@@H](NC(=O)[C@H](Cc2ccc(O)cc2)NC(=O)[C@@H](NC(=O)CN2CCC(NC(=O)CN3CCN(CC(=O)O)CCN(CC(=O)O)CCN(CC(=O)O)CC3)CC2)C(C)C)CSCc2cccc(c2)CSC[C@@H](C(N)=O)NC(=O)[C@H](CO)NC(=O)[C@H](Cc2c[nH]c3ccccc23)NC(=O)[C@H]([C@@H](C)O)NC1=O [3BP-3905] ({DOTA}-[X2]VYCE[dP]DWLTWSC-NH2; linker 4-13 via mXylylene)	83%			< 10 nM	
CC(C)C[C@@H]1NC(=O)[C@H](Cc2c[nH]c3ccccc23)NC(=O)[C@H](CC(=O)O)NC(=O)[C@H]2CCCN2C(=O)[C@H](CCC(=O)O)NC(=O)[C@@H](NC(=O)[C@H](Cc2ccc(O)cc2)NC(=O)CN2CCN(CC(=O)O)CCN(CC(=O)O)CCN(CC(=O)O)CC2)CSCc2cccc(c2)CSC[C@@H](C(N)=O)NC(=O)[C@H](CO)NC(=O)[C@H](Cc2c[nH]c3ccccc23)NC(=O)[C@H]([C@@H](C)O)NC1=O [3BP-3906] ({DOTA}-YCE[dP]DWLTWSC-NH2; linker 2-11 via mXylylene)	>95%			< 10 nM	
